Here are results for 78 molecules from the RepoRT retention time repository.

Each structure is given as a SMILES string.

A short description of this series: RP, Waters ACQUITY Premier BEH C18, 100 × 2.1 mm, 1.7 µm, 40 °C, 0.3 to 0.4 mL/min, estimated dead time 0.73 min; A: water + 0.1% formic acid; B: acetonitrile + 0.1% formic acid; gradient (min/%B) 0/0.5 0.1/0.5 10/80 10.1/99.5 12/0.5 12.1/0.5 14.5/0.5. Conditions: stereoisomer not certain.
`O=C(O)c1cc(=O)c2ccccc2[nH]1` [KYNURENATE]: the LC retention time is 4.18 min.
Take `O=C(O)CCCCCCCCCO` [10-HYDROXYDECANOATE]: the LC retention time was 6.11 min.
Regarding `CC12CCC(=O)C=C1CCC1C2C(O)CC2(C)C1CCC2(O)C(=O)CO` (stereo not drawn) [CORTISOL], the LC retention time is 6.06 min.
With `Nc1nc2c(ncn2C2OC(COP(=O)(O)O)C(O)C2O)c(=O)[nH]1` (stereo not drawn) [GUANOSINE MONOPHOSPHATE], the LC retention time is 1.57 min.
For `OCCc1ccc(O)c(O)c1` [HYDROXYTYROSOL], the LC retention time was 3.89 min.
In the case of `COC(=O)CCCC(=O)O` [MONOMETHYLGLUTARATE], the LC retention time was 3.95 min.
For `O=C(O)CCCCCCCCCCCC(=O)O` [1,11-UNDECANEDICARBOXYLATE], the LC retention time was 7.11 min.
Turning to `Cc1ncc(CO)c(C=O)c1O` [PYRIDOXAL], the LC retention time is 0.923 min.
As to `Nc1ccn(C2OC(COP(=O)(O)O)C(O)C2O)c(=O)n1` (stereo not drawn) [CYTIDINE MONOPHOSPHATE], the LC retention time is 0.941 min.
With `Cc1c[nH]c(=O)[nH]c1=O` [THYMINE], the LC retention time was 2.99 min.
For `COc1cc(CC2C(=O)OCC2Cc2ccc(OC)c(OC)c2)ccc1O` (stereo not drawn) [ARCTIGENIN], the LC retention time is 6.63 min.
Turning to `O=C(O)c1ccc2ccccc2n1` [2-QUINOLINECARBOXYLATE], the LC retention time was 4.24 min.
As to `O=c1c(O)c(-c2ccc(O)c(O)c2)oc2cc(O)cc(O)c12` [QUERCETIN], the LC retention time was 5.6 min.
As for `Nc1ncnc2nc[nH]c12` [ADENINE], the figure is 1.3 min.
On to `CC(CC(=O)CC(C)C1CC(O)C2(C)C3=C(C(=O)CC12C)C1(C)CCC(=O)C(C)(C)C1CC3O)C(=O)O` (stereo not drawn) [GANODERIC ACID A], for which the LC retention time is 6.82 min.
The value for `CCNC(=O)C1CC(C)CCC1C(C)C` (stereo not drawn) [N-ETHYL-5-METHYL-2-(1-METHYLETHYL)-CYCLOHEXANECARBOXAMIDE] was 7.41 min.
Regarding `O=C(O)CCCCCCCCCC(=O)O` [UNDECANEDIOIC ACID], the LC retention time was 6.09 min.
As for `CC(C)C(N)C(=O)O` (stereo not drawn) [VALINE], the LC retention time was 1.21 min.
`O=C(O)CCCCC1CCSS1` [(R)-LIPOIC ACID]: the LC retention time was 6.93 min.
`CN(CC(=O)O)C(=N)N` [CREATINE]: the LC retention time is 0.905 min.
For `Cc1cn(C2CC(O)C(COP(=O)(O)OP(=O)(O)OC3OC(CO)C(O)C(O)C3O)O2)c(=O)[nH]c1=O` [DTDP-D-GLUCOSE], the LC retention time is 1.82 min.
On to `CC(=O)NCCc1c[nH]c2ccc(O)cc12` [N-ACETYLSEROTONIN], for which the LC retention time is 4.42 min.
For the molecule `O=c1ccc2cc(OC3OC(CO)C(O)C(O)C3O)c(O)cc2o1` (stereo not drawn) [AESCULIN], the LC retention time was 3.14 min.
The value for `O=C(O)CNC(=O)c1cccc(O)c1` [3-HYDROXYHIPPURIC ACID] was 3.03 min; that for `C=C1CC23CC1(O)CCC2C12C=CC(O)C(C)(C(=O)O1)C2C3C(=O)O` (stereo not drawn) [GIBBERELLIN A3] was 5.05 min.
Turning to `OCc1ccccc1OC1OC(CO)C(O)C(O)C1O` (stereo not drawn) [SALICIN], the LC retention time was 2.95 min.
The value for `O=c1ccn(C2OC(CO)C(O)C2O)c(=O)[nH]1` (stereo not drawn) [URIDINE] was 2.45 min.
As for `O=CNC(Cc1ccccc1)C(=O)O` (stereo not drawn) [N-FORMYLPHENYLALANINE], the figure is 4.77 min; as for `O=c1cc(-c2ccc(O)c(O)c2)oc2cc(O)cc(O)c12` [LUTEOLIN], 5.54 min; as for `Nc1ccccc1C(=O)CC(N)C(=O)O` (stereo not drawn) [KYNURENINE], 3.62 min.
For `O=C(O)CCCCCCCCC(=O)O` [SEBACATE], the LC retention time is 6.03 min.
As for `COC(=O)CCC(=O)OC` [DIMETHYL SUCCINATE], the figure is 3.97 min.
As to `Cc1ccc(C(C)C)c(O)c1` [THYMOL], the LC retention time was 5.78 min.
With `COc1cc(CC2COC(=O)C2Cc2ccc(O)c(OC)c2)ccc1O` (single isomer, unassigned; (-)) [(-)-MATAIRESINOL], the LC retention time was 6.12 min.
Consider `O=C(O)C1CCCN1` (stereo not drawn) [PROLINE], for which the LC retention time is 0.916 min.
The value for `CC1CCC2(C(=O)O)CCC3(C)C(=CCC4C5(C)CC(O)C(O)C(C)(CO)C5CCC43C)C2C1C` (stereo not drawn) [ASIATIC ACID] was 7.17 min.
Consider `CC(=O)OC(CC(=O)O)C[N+](C)(C)C` (stereo not drawn) [O-ACETYLCARNITINE], for which the LC retention time was 1.48 min.
`OCC1OC(OC2C(CO)OC(OC3C(CO)OC(OC4C(CO)OC(O)C(O)C4O)C(O)C3O)C(O)C2O)C(O)C(O)C1O` (stereo not drawn) [MALTOTETRAOSE]: the LC retention time was 1.07 min.
With `O=C(OC1Cc2c(O)cc(O)cc2OC1c1ccc(O)c(O)c1)c1cc(O)c(O)c(O)c1` (stereo not drawn) [(?)-EPICATECHIN GALLATE], the LC retention time was 4.47 min.
Regarding `NC(=O)c1ccc[n+](C2OC(COP(=O)([O-])O)C(O)C2O)c1` (stereo not drawn) [NICOTINAMIDE MONONUCLEOTIDE], the LC retention time was 0.959 min.
On to `Cc1cc2nc3c(=O)[nH]c(=O)nc-3n(CC(O)C(O)C(O)CO)c2cc1C` (stereo not drawn) [RIBOFLAVIN], for which the LC retention time was 4.4 min.
Consider `O=C(O)C=Cc1c[nH]c2ccccc12` [INDOLEACRYLIC ACID], for which the LC retention time was 5.61 min.
Turning to `CC(C)(N)C(=O)O` [2-AMINOISOBUTYRATE], the LC retention time is 0.886 min.
For the molecule `COC(=O)C=Cc1ccccc1` [METHYL CINNAMATE], the LC retention time is 7.95 min.
Consider `COc1cc(CNC(=O)CCCCCCC(C)C)ccc1O` [DIHYDROCAPSAICIN], for which the LC retention time is 7.49 min.
With `NC(=O)c1ccc[n+](C2OC(COP(=O)(O)OP(=O)(O)OCC3OC(n4cnc5c(N)ncnc54)C(O)C3O)C(O)C2O)c1` (stereo not drawn) [BETA-NICOTINAMIDE ADENINE DINUCLEOTIDE], the LC retention time was 2.13 min.
As for `O=C(O)c1ccc[nH]1` [PYRROLE-2-CARBOXYLATE], the figure is 4.38 min.
The value for `CC(C)CC(=O)OC(CC(=O)[O-])C[N+](C)(C)C` (stereo not drawn) [ISOVALERYLCARNITINE] was 4.39 min; that for `COc1cc(CC(=O)O)ccc1O` [HOMOVANILLATE] was 4.66 min.
`N[C@@H](Cc1ccc(O)c(O)c1)C(=O)O` [L-DOPA]: the LC retention time was 1.7 min.
Turning to `O=C(O)c1cc(O)cc(O)c1` [3,5-DIHYDROXYBENZOIC ACID], the LC retention time was 2.21 min.
As to `Nc1ncnc2c1ncn2C1OC(COP(=O)(O)O)C(OP(=O)(O)O)C1O` (stereo not drawn) [ADENOSINE 3',5'-DIPHOSPHATE], the LC retention time is 1.11 min.
In the case of `CC(=O)NC(CC(=O)O)C(=O)O` (stereo not drawn) [N-ACETYLASPARTATE], the LC retention time is 1.41 min.
Consider `CC(=O)NC(CC(C)C)C(=O)O` (stereo not drawn) [N-ACETYLLEUCINE], for which the LC retention time is 4.88 min.
The value for `COc1ccc(C2CC(=O)c3c(O)cc(O)cc3O2)cc1O` (stereo not drawn) [HESPERETIN] was 6.26 min; that for `CC(=O)NC(CC(N)=O)C(=O)O` (stereo not drawn) [N-ACETYLASPARAGINE] was 1.1 min.
Take `COc1cc(CC(COC2OC(CO)C(O)C(O)C2O)C(COC2OC(CO)C(O)C(O)C2O)Cc2ccc(O)c(OC)c2)ccc1O` (stereo not drawn) [SECOISOLARICIRESINOL DIGLUCOSIDE]: the LC retention time is 4.58 min.
In the case of `CCCCCCC[C@@H](O)CC(=O)O` [(R)-3-HYDROXYDECANOIC ACID], the LC retention time is 7.09 min.
Turning to `CCCCCCCCCC(=O)OC(CC(=O)[O-])C[N+](C)(C)C` (stereo not drawn) [DECANOYLCARNITINE], the LC retention time is 6.92 min.
As to `COc1cc2c(c(O)c1C(=O)C=Cc1ccc(O)cc1)C(O)CC(C)(C)O2` (stereo not drawn) [ISOXANTHOHUMOL B], the LC retention time was 6.64 min.
The value for `CC1(C(=O)O)CCC2(C)CCC3(C)C(=CC(=O)C4C5(C)CCC(OC6OC(C(=O)O)C(O)C(O)C6OC6OC(C(=O)O)C(O)C(O)C6O)C(C)(C)C5CCC43C)C2C1` (stereo not drawn) [GLYCYRRHIZIN] was 6.4 min; that for `Nc1nc2nccnc2c(=O)[nH]1` [PTERIN] was 2.44 min.
For the molecule `NC(Cc1cc(I)c(Oc2cc(I)c(O)c(I)c2)c(I)c1)C(=O)O` (stereo not drawn) [THYROXINE], the LC retention time is 6.62 min.
For the molecule `CC(=O)NC(CCC(=O)O)C(=O)O` (stereo not drawn) [N-ACETYLGLUTAMATE], the LC retention time is 2.2 min.
As for `CC1C(=O)OC2CC34C5CC(C(C)(C)C)C36C(OC(=O)C6O)OC4(C(=O)O5)C21O` (stereo not drawn) [GINKGOLIDE A], the figure is 5.66 min.
With `O=C(O)c1c(O)cc(O)cc1O` [2,4,6-TRIHYDROXYBENZOIC ACID], the LC retention time was 3.9 min.
Turning to `O=Cc1ccc(O)c(O)c1` [3,4-DIHYDROXYBENZALDEHYDE], the LC retention time was 3.49 min.
Turning to `NC(Cc1c[nH]c2ccc(O)cc12)C(=O)O` (stereo not drawn) [5-HYDROXYTRYPTOPHAN], the LC retention time was 3.46 min.
With `O=C(O)CCCCCCCO` [8-HYDROXYOCTANOATE], the LC retention time was 5.04 min.
The value for `CC(C)=CCNc1ncnc2nc[nH]c12` [N6-(DELTA2-ISOPENTENYL)-ADENINE] was 4.63 min.
Consider `CC(C)(C)C1(O)CC2OC(=O)CC23C(=O)OC2OC(=O)C(O)C231` (stereo not drawn) [BILOBALIDE], for which the LC retention time is 4.91 min.
For the molecule `CC(CCC(=O)O)C1CCC2C3CCC4CC(O)CCC4(C)C3CCC12C` (stereo not drawn) [LITHOCHOLATE], the LC retention time is 8.27 min.
The value for `O=C1CCCCO1` [5-VALEROLACTONE] was 4.9 min; that for `O=C1CCNC(=O)N1` [DIHYDROURACIL] was 1.37 min.
As to `CC1OC(Oc2c(-c3cc(O)c(O)c(O)c3)oc3cc(O)cc(O)c3c2=O)C(O)C(O)C1O` (stereo not drawn) [MYRICITRIN], the LC retention time was 4.4 min.
The value for `O=c1c(O)c(-c2ccc(O)cc2)oc2cc(O)cc(O)c12` [KAEMPFEROL] was 6.13 min.
On to `O=C(O)CCCCCCCCCCCCCCC(=O)O` [HEXADECANEDIOIC ACID], for which the LC retention time was 7.67 min.
As for `Nc1nc2nc[nH]c2c(=O)[nH]1` [GUANINE], the LC retention time is 1.29 min.
